Assay results published in patent US20140357713A1, “ANTIMICROBIAL COMPOUNDS AND METHODS OF USE” (NexMed Holdings, Inc., priority 2012, published 2014).
Where a name gives a salt, the structure may show the parent alone. Read-outs that look alike come from different tables or passages of the source.

Experiments:
[1] = tested on: Aspergillus niger (CMCC 98003); assay: Time kill study, Example 33 (0 to 5 min); type: cell-based; details: 1×MIC
Experimental: Thirty compounds were tested for antimicrobial activity using standard procedures and standard strains for both the minimum inhibitory concentration (MIC) assay and a time kill study. Both the MIC assay and the time kill study were performed according to Clinical and Laboratory Standards Institute (CLSI) guidelines. Three bacteria strains, Escherichia coli (ATCC 25922), Pseudomonas aeruginosa (ATCC 27853), Staphulococcus aureus (ATCC 29213), and two fungus strains, Candida albicans (ATCC 90029) and Aspergillus niger (CMCC 98003), were used in the experiments.
The viable counts in Log10 CFU/mL at each time point were recorded.
Time kill studies. Strain suspensions were prepared as described above for the MIC test, and strain suspensions and compound solutions were mixed in the same volume. Samples were removed at specified times including 0 min, 30 sec, 1 min and 5 mins, were diluted in the test medium and streaked on agar. Colonies were counted after 24 to 48 hrs of incubation.
The MIC values for thirty compounds against Escherichia coli, Pseudomonas aeruginosa, Staphulococcus aureus, Candida albicans, and Aspergillus niger were recorded and are presented in Table 3 and Table 4.

[2] = tested on: Candida albicans (ATCC 90029); assay: Time kill study, Example 33 (0 to 5 min); type: cell-based; details: 1×MIC
Procedure, shortened: (§1)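 Viable counts (Log10 CFU/mL) were recorded at each time point. Equal volumes of strain suspension and compound solution were combined following CLSI guidelines, then aliquots were diluted, plated on agar and incubated 24 to 48 hrs before colony counting.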

[3] = tested on: Pseudomonas aeruginosa (ATCC 27853); assay: Time kill study, Example 33 (0 to 5 min); type: cell-based; details: 1×MIC
Procedure, shortened: as §1

[4] = tested on: Staphylococcus aureus (ATCC 29213); assay: Time kill study, Example 33 (0 to 5 min); type: cell-based; details: 1×MIC
Procedure, shortened: as §1

[5] = tested on: Escherichia coli (ATCC 25922); assay: Time kill study, Example 33 (0 to 5 min); type: cell-based; details: 1×MIC
Procedure, shortened: as §1

[6] = Solubility (Sol., Table 1); type: physicochemical
[7] = tested on: Candida albicans (ATCC 90029); assay: Minimum inhibitory concentration (MIC) assay, Example 33; type: cell-based; details: Candida albicans
Procedure, shortened: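 Broth microdilution per CLSI guidelines in RPMI 1640; inoculum set to OD530 0.08–0.13, diluted 1:50 then 1:20 to 2× strength and mixed 1:2 with 2-fold serial compound dilutions. Incubated at 35° C; MIC read per CLSI.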

[8] = tested on: Staphulococcus aureus (ATCC 29213); assay: as above; type: cell-based, Staphylococcus aureus; details: Staphylococcus aureus
Procedure, shortened: (§2)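 Broth microdilution MIC per CLSI guidelines, in CAMHB with serial 2-fold compound dilutions. Bacterial inocula were adjusted to a 0.5 McFarland standard, then diluted 1:100 and 1:2 in the wells. Plates were incubated at 35 °C, and the MIC was read according to CLSI.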

[9] = tested on: Aspergillus niger (CMCC 98003); assay: as above; type: cell-based; details: for MIC: Aspergillus niger; for MIC Aspergillus niger: n = 2
Procedure, shortened: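 Broth microdilution MIC per CLSI guidelines in RPMI 1640 with serial 2-fold compound dilutions. Spore suspension from sporulating colonies adjusted to OD530 0.09-0.13, diluted 1:50 as 2× inoculum and added 1:2 to drug wells; plates incubated at 35 °C and MIC read per CLSI.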

[10] = pH (Table 1); type: physicochemical
[11] = tested on: Pseudomonas aeruginosa (ATCC 27853); assay: Minimum inhibitory concentration (MIC) assay, Example 33; type: cell-based; details: Pseudomonas aeruginosa
Procedure, shortened: as §2

[12] = tested on: Escherichia coli (ATCC 25922); assay: as above; type: cell-based; details: Escherichia coli
Procedure, shortened: as §2

[13] = ATCC90029, read-out: MIC Candida albicans, n = 1
[14] = ATCC90029, read-out: MIC Candida albicans, n = 2
[15] = ATCC29213, read-out: MIC S. aureus, n = 1
[16] = ATCC29213, read-out: MIC S. aureus, n = 2
[17] = CMCC98003, read-out: MIC Aspergillus niger
[18] = ATCC27853, read-out: MIC P. aeruginosa, n = 1
[19] = ATCC27853, read-out: MIC P. aeruginosa, n = 2
[20] = ATCC25922, Table 19 summary of Example 33 and Example 35
[21] = ATCC25922, read-out: MIC E. coli, n = 1
[22] = ATCC25922, read-out: MIC E. coli, n = 2

SMILES | melting point [°C] | Viable counts, Candida albicans time kill study ([2]; 0.5 min) [Log10 CFU/mL] | Viable counts, Candida albicans time kill study ([2]; 1 min) [Log10 CFU/mL] | Viable counts, Candida albicans time kill study ([2]; 5 min) [Log10 CFU/mL] | Viable counts, Candida albicans time kill study ([2]; time 0) [Log10 CFU/mL] | Viable counts, Pseudomonas aeruginosa time kill study ([3]; 0.5 min) [Log10 CFU/mL] | Viable counts, Pseudomonas aeruginosa time kill study ([3]; 1 min) [Log10 CFU/mL] | Viable counts, Pseudomonas aeruginosa time kill study ([3]; 5 min) [Log10 CFU/mL] | Viable counts, Pseudomonas aeruginosa time kill study ([3]; time 0) [Log10 CFU/mL] | Viable counts, Staphylococcus aureus time kill study ([4]; 0.5 min) [Log10 CFU/mL] | Viable counts, Staphylococcus aureus time kill study ([4]; 1 min) [Log10 CFU/mL] | Viable counts, Staphylococcus aureus time kill study ([4]; 5 min) [Log10 CFU/mL] | Viable counts, Staphylococcus aureus time kill study ([4]; time 0) [Log10 CFU/mL] | Viable counts, Escherichia coli time kill study ([5]; 0.5 min) [Log10 CFU/mL] | Viable counts, Escherichia coli time kill study ([5]; 1 min) [Log10 CFU/mL] | Viable counts, Escherichia coli time kill study ([5]; 5 min) [Log10 CFU/mL] | Viable counts, Escherichia coli time kill study ([5]; time 0) [Log10 CFU/mL] | Sol. [6] [%] | MIC ([7]; ATCC90029, Table 19 summary) [µg/mL] | MIC [7, 13] [µg/mL] | also measured
CCCCCCCCCCCC(C)OC(=O)C(C)N(C)C (centres unmarked) (as salt: hydrochloride) [Nex-64, Tridecan-2-yl 2-(dimethylamino)propanoate hydrochloride] | 88 to 94 |  |  |  |  |  |  |  |  |  |  |  |  |  |  |  |  |  |  |  | 
CCCCCCCCCCCCOC(=O)C(C)N(C)C (centres unmarked) (as salt: salt) [Nex-30, Dodecyl 2-(dimethylamino)propanoate ethanesulfonate] | 45 to 50 |  |  |  |  |  |  |  |  |  |  |  |  |  |  |  |  |  |  |  | 
CCCCCCCCCCCCOC(=O)C(C)N(C)C (centres unmarked) (as salt: maleate) [Nex-20, Dodecyl 2-(dimethylamino)propanoate maleate] | 65 to 70 |  |  |  |  |  |  |  |  |  |  |  |  |  |  |  |  |  |  |  | 
CCCCCCCCCCOC(=O)C(C)N(C)C (centres unmarked) [Nex-68, Decyl 2-(dimethylamino)propanoate hydrochloride] |  | 5.35 | 5.15 | 5.13 | 5.47 | 5.18 | 4.88 | 4.87 | 5.78 | 5.82 | 5.88 | 5.57 | 6.39 | 5.53 | 4.3 | <3.52 | 5.88 | 97 | 390 | 390 | Viable counts, Aspergillus niger time kill study ([1]; 0.5 min): 5.25 Log10 CFU/mL; Viable counts, Aspergillus niger time kill study ([1]; 1 min): 5.25 Log10 CFU/mL; Viable counts, Aspergillus niger time kill study ([1]; 5 min): 5.25 Log10 CFU/mL; Viable counts, Aspergillus niger time kill study ([1]; time 0): 5.25 Log10 CFU/mL; MIC [7, 14]: 200 µg/mL; MIC ([8]; ATCC29213, Table 19 summary): 3130 µg/mL; MIC [8, 15]: 3130 µg/mL; MIC [8, 16]: 3130 µg/mL; MIC ([9]; CMCC98003): 3130 µg/mL; MIC [9, 17]: 3130 µg/mL; MIC Aspergillus niger [9]: 3130 µg/mL; pH [10]: 0.87; MIC ([11]; ATCC27853, Table 19 summary): 3130 µg/mL; MIC [11, 18]: 3130 µg/mL; MIC [11, 19]: 3130 µg/mL; MIC [12, 20]: 780 µg/mL; MIC [12, 21]: 780 µg/mL; MIC [12, 22]: 1560 µg/mL
CCCCCCCCCCCCOC(=O)C(C)N(C)C (centres unmarked) (as salt: methanesulfonate) [Nex-22, Dodecyl 2-(dimethylamino)propanoate methanesulfonate] | 66 to 72 |  |  |  |  |  |  |  |  |  |  |  |  |  |  |  |  |  |  |  | 
CCCCCCCCCCCCOC(=O)CN(C)C [Nex-52, Dodecyl 2-(dimethylamino)acetate hydrochloride] |  | 5.19 | 5.17 | 5.23 | 5.24 | 4.7 | 4 | <3.52 | 5.56 | 6.27 | 6.12 | 6.13 | 6.26 | 6.12 | 5.86 | 5.24 | 5.95 | 49 | 50 | 50 | Viable counts, Aspergillus niger time kill study ([1]; 0.5 min): 5.28 Log10 CFU/mL; Viable counts, Aspergillus niger time kill study ([1]; 1 min): 5.28 Log10 CFU/mL; Viable counts, Aspergillus niger time kill study ([1]; 5 min): 4.95 Log10 CFU/mL; Viable counts, Aspergillus niger time kill study ([1]; time 0): 5.30 Log10 CFU/mL; MIC [7, 14]: 50 µg/mL; MIC ([8]; ATCC29213, Table 19 summary): 200 µg/mL; MIC [8, 15]: 200 µg/mL; MIC [8, 16]: 100 µg/mL; MIC ([9]; CMCC98003): 3130 µg/mL; MIC [9, 17]: 3130 µg/mL; MIC Aspergillus niger [9]: 3130 µg/mL; pH [10]: 3.30; MIC ([11]; ATCC27853, Table 19 summary): 6250 µg/mL; MIC [11, 18]: 6250 µg/mL; MIC [11, 19]: 6250 µg/mL; MIC [12, 20]: 1560 µg/mL; MIC [12, 21]: 1560 µg/mL; MIC [12, 22]: 1560 µg/mL
CCCCCCCCCCCOC(=O)C(C)N(C)C (centres unmarked) [Nex-67, Undecyl 2-(dimethylamino)propanoate hydrochloride] |  | 5.53 | 5.49 | 5.41 | 5.58 | <4.0 | <3.70 | <3.52 | 5.71 | 6.1 | 6.13 | 5.88 | 6.27 | 5.81 | 5.28 | 3.82 | 5.64 | 81 | 6250 | 6250 | MIC [7, 14]: 6250 µg/mL; MIC [8, 15]: 3130 µg/mL; MIC [8, 16]: 1560 µg/mL; MIC ([9]; CMCC98003): 12500 µg/mL; MIC [9, 17]: 12500 µg/mL; MIC Aspergillus niger [9]: 12500 µg/mL; pH [10]: 3.77; MIC ([11]; ATCC27853, Table 19 summary): 6250 µg/mL; MIC [11, 18]: 6250 µg/mL; MIC [11, 19]: 6250 µg/mL; MIC [12, 20]: 1560 µg/mL; MIC [12, 21]: 1560 µg/mL; MIC [12, 22]: 1560 µg/mL
